Publication PMC5908784, “Extracellular loops 2 and 3 of the calcitonin receptor selectively modify agonist binding and efficacy” (Biochemical Pharmacology, 2018)
Where a chain is given by its changes, count along the chain named. Read-outs that look alike come from different tables or passages of the source. Blank lines part the entries; values can stand above or below the molecule they belong to. Where no end group is shown, it is not given here.

Key:
hCTR F356A = target: T1, hCTR F356A (Homo sapiens, UniProt P30988, F356A); test: IP1 accumulation; assay type: cell-based; conditions: SEM, read-out: Emax (% WT)
T1 construct: c-Myc (N); expressed in transfected cells
T1 sequence (P30988 25-474 F356A): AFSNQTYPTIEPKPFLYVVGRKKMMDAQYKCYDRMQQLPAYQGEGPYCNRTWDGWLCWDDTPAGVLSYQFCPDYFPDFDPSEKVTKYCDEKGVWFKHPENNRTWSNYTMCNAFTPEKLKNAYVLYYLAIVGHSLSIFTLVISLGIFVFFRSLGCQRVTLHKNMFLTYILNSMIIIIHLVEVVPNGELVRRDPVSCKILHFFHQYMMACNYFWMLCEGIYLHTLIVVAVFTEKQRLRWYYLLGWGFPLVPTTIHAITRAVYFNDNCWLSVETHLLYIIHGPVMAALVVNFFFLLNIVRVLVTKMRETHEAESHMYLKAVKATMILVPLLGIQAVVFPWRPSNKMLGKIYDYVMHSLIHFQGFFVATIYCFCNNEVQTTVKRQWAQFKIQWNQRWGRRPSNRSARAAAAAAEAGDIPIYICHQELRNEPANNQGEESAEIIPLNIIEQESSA
Summary of the method: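 Cells bearing the mutant calcitonin receptor were plated overnight, then stimulated with increasing ligand concentrations for 60 min in the presence of LiCl. Endogenous IP1 was read by HTRF after lysis.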

hCTR Y284A = target: T2, hCTR Y284A (Homo sapiens, UniProt P30988, Y284A); test: Homologous whole cell competition binding; conditions: homologous competition of 125I-sCT(8-32), whole cells, mean ± S.E.M., SEM
T2 construct: expressed in transfected cells
T2 sequence (P30988 25-474 Y284A): T1 sequence (P30988 25-474 F356A) with Y260A, A332F
Experimental: (§1) Homologous radioligand competition was performed on 2.5 × 10^4 cells/well seeded into 96-well trays and cultured overnight. Cells were incubated overnight at 4 °C with two concentrations of ^125I-sCT(8-32) (between 25 and 100 pM; specific activity, 2000 Ci/mmol^9) and serial dilutions of non-iodinated sCT(8-32). Non-bound ligand was removed and bound ligand activity was measured using a γ counter (Wallac Wizard 1470 Gamma Counter, Perkin Elmer, 80% counter efficiency). Values were normalized against non-specific binding (0%) defined by the presence of 1 μM of unlabelled sCT(8-32), and total ligand bound in absence of competing sCT(8-32) (100%).
(§2) IC50 and Bmax values were estimated from competitive inhibition of ^125I-sCT(8-32) binding using a 3-parameter logistic equation (log(inhibitor versus response)) in Prism (v7; Graphpad). Data were corrected for radioligand occupancy using the Cheng-Prusoff equation in Prism; as such data are reported as pKi. Emax and EC50 were estimated from concentration-response curves using with a 3-parameter logistic equation in Prism (v7). These values are a composite of functional affinity, efficacy and stimulus response coupling. The Black and Leff operational model of agonism was applied to separate effects on pathway-specific efficacy (τ) from those that modify ligand functional affinity (pKA). Derived τ values were normalized to experimentally determined levels of cell surface expression to provide a measure of efficacy (τc) that is independent of affinity and altered cell surface receptor expression. pKi, pKA and log τc values for mutant receptors were statistically compared to those of the WT receptor using a one-way analysis of variance (ANOVA) and Dunnett’s post-test. Significance was accepted at P < 0.05.

hCTR G369A = target: T3, hCTR G369A (Homo sapiens, UniProt P30988, G369A); test: Homologous whole cell competition binding; conditions: homologous competition of 125I-sCT(8-32), whole cells, mean ± S.E.M., SEM
T3 construct: c-Myc (N); expressed in transfected cells
T3 sequence (P30988 25-474 G369A): T1 sequence (P30988 25-474 F356A) with A332F, G345A
Experimental: as §1, §2

hCTR F359A = target: T4, hCTR F359A (Homo sapiens, UniProt P30988, F359A); test: Homologous whole cell competition binding; conditions: homologous competition of 125I-sCT(8-32), whole cells, mean ± S.E.M., SEM
T4 construct: expressed in transfected cells
T4 sequence (P30988 25-474 F359A): T1 sequence (P30988 25-474 F356A) with A332F, F335A
Experimental: as §1, §2

Molecule: CC(C)C[C@H](NC(=O)[C@H](CCCCN)NC(=O)CNC(=O)[C@H](CC(C)C)NC(=O)[C@@H](NC(=O)[C@@H]1CSSC[C@H](N)C(=O)N[C@@H](CO)C(=O)N[C@@H](CC(N)=O)C(=O)N[C@@H](CC(C)C)C(=O)N[C@@H](CO)C(=O)N[C@@H]([C@@H](C)O)C(=O)N1)C(C)C)C(=O)N[C@@H](CO)C(=O)N[C@@H](CCC(N)=O)C(=O)N[C@@H](CCC(=O)O)C(=O)N[C@@H](CC(C)C)C(=O)N[C@@H](Cc1c[nH]cn1)C(=O)N[C@@H](CCCCN)C(=O)N[C@@H](CC(C)C)C(=O)N[C@@H](CCC(N)=O)C(=O)N[C@H](C(=O)N[C@@H](Cc1ccc(O)cc1)C(=O)N1CCC[C@H]1C(=O)N[C@@H](CCCNC(=N)N)C(=O)N[C@H](C(=O)N[C@@H](CC(N)=O)C(=O)N[C@H](C(=O)NCC(=O)N[C@@H](CO)C(=O)NCC(=O)N[C@H](C(=O)N1CCC[C@H]1C(N)=O)[C@@H](C)O)[C@@H](C)O)[C@@H](C)O)[C@@H](C)O [sCT]
Emax (hCTR F356A; F356A, IP1 maximal response, mean ± S.E.M.): 36 ± 3%

Molecule: CC[C@H](C)[C@H](NC(=O)[C@H](C)NC(=O)[C@@H](NC(=O)[C@H](CCC(N)=O)NC(=O)[C@@H]1CCCN1C(=O)[C@H](Cc1ccccc1)NC(=O)[C@@H](NC(=O)[C@H](Cc1c[nH]cn1)NC(=O)[C@H](Cc1ccccc1)NC(=O)[C@H](CCCCN)NC(=O)[C@H](CC(N)=O)NC(=O)[C@H](Cc1ccccc1)NC(=O)[C@H](CC(=O)O)NC(=O)[C@H](CCC(N)=O)NC(=O)[C@@H](NC(=O)[C@H](Cc1ccc(O)cc1)NC(=O)[C@@H](NC(=O)CNC(=O)[C@H](CC(C)C)NC(=O)[C@H](CCSC)NC(=O)[C@@H]1CSSC[C@H](N)C(=O)NCC(=O)N[C@@H](CC(N)=O)C(=O)N[C@@H](CC(C)C)C(=O)N[C@@H](CO)C(=O)N[C@@H]([C@@H](C)O)C(=O)N1)[C@@H](C)O)[C@@H](C)O)[C@@H](C)O)[C@@H](C)O)C(=O)NCC(=O)N[C@H](C(=O)NCC(=O)N[C@@H](C)C(=O)N1CCC[C@H]1C(N)=O)C(C)C [hCT]
Emax (hCTR F356A): 69 ± 6%

Ki (hCTR Y284A): 0.141 nM | Ki (hCTR G369A): 0.229 nM | Ki (hCTR F359A): 0.219 nM
Molecule: VLGKLSQELHKLQTYPRTNTGSGTP-NH2 [sCT(8-32)]
